# Source: PubChem BioAssay AID1645866 (Buhrlage Lab, Dana-Farber Cancer Institute and Novartis …, 2021)
# Active and inactive are the calls of the source.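 Rule for the calls: active = in confirmatory dose-response testing, peak deubiquitinase inhibition of 30% or more; inactive = the rest.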
# Target: Ubiquitin carboxyl-terminal hydrolase 28 (Homo sapiens) (UniProt Q96RU2)
# Assay: Concentration-response biochemical assay confirming initial hits as inhibitors of ubiquitin-specific protease 28 (AID 1645866)
# Conditions: purified USP28, ubiquitin-rhodamine fluorescence, 30 min
# Ubiquitin carboxyl-terminal hydrolase 28 (Homo sapiens), sequence (Q96RU2 whole entry, looked up): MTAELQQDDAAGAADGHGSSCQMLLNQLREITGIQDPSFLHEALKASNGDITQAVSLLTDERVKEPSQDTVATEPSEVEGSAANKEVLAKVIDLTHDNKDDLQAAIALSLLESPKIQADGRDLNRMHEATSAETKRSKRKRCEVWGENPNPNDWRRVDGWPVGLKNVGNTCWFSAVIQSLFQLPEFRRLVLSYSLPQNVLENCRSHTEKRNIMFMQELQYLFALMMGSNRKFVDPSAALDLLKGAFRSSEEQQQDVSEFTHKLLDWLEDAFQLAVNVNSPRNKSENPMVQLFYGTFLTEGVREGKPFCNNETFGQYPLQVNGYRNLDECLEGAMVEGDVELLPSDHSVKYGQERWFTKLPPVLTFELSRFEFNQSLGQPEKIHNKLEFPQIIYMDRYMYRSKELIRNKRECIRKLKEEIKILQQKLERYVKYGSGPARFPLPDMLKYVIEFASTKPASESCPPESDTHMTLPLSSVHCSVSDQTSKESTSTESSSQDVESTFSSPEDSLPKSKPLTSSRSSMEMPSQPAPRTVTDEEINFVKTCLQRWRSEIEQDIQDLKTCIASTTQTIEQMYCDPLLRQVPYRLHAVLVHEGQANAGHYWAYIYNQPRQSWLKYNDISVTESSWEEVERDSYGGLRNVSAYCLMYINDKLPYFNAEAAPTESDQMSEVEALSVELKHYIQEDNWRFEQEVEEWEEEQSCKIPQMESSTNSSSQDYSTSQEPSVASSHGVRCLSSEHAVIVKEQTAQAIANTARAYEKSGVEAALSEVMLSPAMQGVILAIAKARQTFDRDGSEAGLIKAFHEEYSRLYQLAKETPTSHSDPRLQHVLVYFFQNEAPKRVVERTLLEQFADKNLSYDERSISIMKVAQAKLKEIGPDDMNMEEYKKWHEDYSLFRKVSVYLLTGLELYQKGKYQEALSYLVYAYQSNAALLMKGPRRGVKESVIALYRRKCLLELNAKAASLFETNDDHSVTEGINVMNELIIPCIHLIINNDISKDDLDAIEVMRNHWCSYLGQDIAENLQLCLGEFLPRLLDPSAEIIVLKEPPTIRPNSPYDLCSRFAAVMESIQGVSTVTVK
row,Compound,IC50
1,COc1ccc(C(C(=O)NC2CCCCC2)N(C(=O)CCCC(=O)Nc2ccccn2)c2ccccc2C)cc1 (centres undefined),17.1 µM
2,COc1ccc(-c2cnnn2-c2ccc(NC(=O)c3c(F)cccc3F)cc2)cc1OC,> 50 µM (inactive)
3,Cc1cc2nc(/C=C/c3ccccc3)n(Cc3cccc(F)c3)c2cc1C,4.94 µM
4,Cc1ccc(Nc2nc(C(=O)NCc3ccc4c(c3)OCO4)cc3occc23)cc1Cl,19 µM
5,O=C(Cn1ncc2c(N3CCCCCC3)ncnc21)NCc1ccccc1,> 50 µM (inactive)
6,O=C(NCc1nc(-c2ccc3c(c2)[nH]c(=O)n3C2CCCC2)no1)c1ccccc1,> 50 µM (inactive)
7,O=S(c1ccc2ccccc2c1)c1cnns1 (centres undefined),> 50 µM (inactive)
8,O=C(NCc1cccnc1)C1CCN(c2cnc(N3CCCCCC3)nc2)CC1,0.0687 µM
9,COc1cccc(N2CCN(c3ccc4nnc(CCC(=O)N5CCc6ccccc6C5)n4n3)CC2)c1,22.8 µM
10,O=c1ccc(-c2noc(Cc3c(F)cccc3Cl)n2)c[nH]1,0.516 µM
11,CC1CCCCN1c1nc(F)c2c(c1F)S(=O)(=O)CCN2Cc1ccccc1 (centres undefined),> 50 µM (inactive)
12,O=C1CC(c2cc3c(cc2Br)OCO3)c2cc3c(cc2N1)OCCO3 (centres undefined),14.9 µM
13,Cc1c(CC(=O)N2CCN(c3ncccn3)CC2)c(=O)oc2cc(O)ccc12,23 µM
14,O=C(COc1cc([N+](=O)[O-])cc2cccnc12)NCCC1=CCCCC1,28.6 µM
15,COc1ccc(C(=O)Nc2nc3n(n2)C(c2ccccc2)CC(=O)N3)cc1 (centres undefined),12.5 µM
16,CC(C)NC(=O)CN1C(=O)CC(C)Sc2ccc(S(=O)(=O)N3CCCCC3)cc21 (centres undefined),41.6 µM
17,COc1ccc(N(CC(=O)NC2CCCCC2)C(=O)c2ccc(-c3ccccc3)[nH]2)cc1OC,4.16 µM
18,COc1ccc(CCNC(=O)c2c(N)n(-c3cccc(Cl)c3)c3nc4ccccc4nc23)cc1,> 50 µM (inactive)
19,O=C(CN1C(=O)COc2ccc(Cl)cc21)Nc1cccc2ncccc12,> 50 µM (inactive)
20,C=C(NC(=O)C(=C)NC(=O)c1csc(C2=N[C@@H]3c4csc(n4)[C@H]4NC(=O)c5csc(n5)[C@H]([C@](C)(O)[C@@H](C)O)NC(=O)C5CSC(=N5)/C(=C/C)NC(=O)C([C@@H](C)O)NC(=O)c5csc(n5)[C@]3(CC2)NC(=O)[C@H](C)NC(=O)C(=C)NC(=O)[C@H](C)NC(=O)C([C@@H](C)CC)NC2C=Cc3c(C(C)O)cc(nc3[C@H]2O)C(=O)OC4C)n1)C(N)=O (some centres undefined),> 50 µM (inactive)
21,Cc1cc(C)nc(-n2nc(C)c3c2NC(=O)CSC3c2ccccc2F)n1 (centres undefined),34.3 µM
22,Cc1nc(C(=O)NC2(O)C(=O)c3ccccc3C2=O)cs1,14 µM
23,Cc1ccc(-n2nc(C(=O)Nc3ccc(C)cn3)c3ncn(C)c(=O)c32)cc1,1.69 µM
24,Clc1cccc(N2CCN(c3ncnc4nc[nH]c34)CC2)c1,39.5 µM

row,Compound,IC50
1,O=C(Nc1ccccc1-c1nc2ccccc2[nH]1)c1sc2ccccc2c1Cl,2.04 µM
2,Cc1nc(-c2noc(-c3ccncc3)n2)cn1CC(=O)N1CCN(c2ccc(F)cc2)CC1,37.6 µM
3,CC(C)Cc1nc2sc3c(NCCN4CCOCC4)ncnc3c2c2c1CCC2,0.828 µM
4,COc1ccc(C2CC(=O)Nc3n[nH]c(-c4ccccc4)c32)cc1OC (centres undefined),33.7 µM
5,Cn1c2ccccc2c(=O)c2c(=O)n(Cc3ccccc3)c(-c3ccccc3F)nc21,0.108 µM
6,O=C(CSc1nnnn1-c1ccccc1)Nc1ccccc1,39.8 µM
7,CC1(C(=O)NC2CCCC2)Cn2c(cc3ccccc32)C(=O)N1c1ccc(F)cc1 (centres undefined),21.3 µM
8,COCCNC(=O)c1ccnn1-c1ccc2ccc(-c3cccnc3)cn12,> 50 µM (inactive)
9,Cc1sc(NC(=O)CN2CCc3ccccc3C2)nc1-c1ccc2c(c1)CCN2C(=O)C1CCCCC1,> 50 µM (inactive)
10,Fc1cccc(Cn2cc(-c3noc(-c4cccnc4)n3)nn2)c1,29.1 µM
11,Cc1cnnn1-c1ccc(C(=O)Nc2cc(Cl)ccc2Cl)cc1,43.5 µM
12,Cc1ccccc1NC(=O)CNc1nc(Nc2ccccc2)nc(Nc2ccccc2)n1,19.1 µM
13,O=C(Nc1ccccc1Sc1ncc(-c2ccc(Cl)cc2)cn1)c1ccco1,23.6 µM
14,CCOc1ccccc1NC(=O)COC(=O)C(c1ccccc1)c1ccccc1,> 50 µM (inactive)
15,CC[C@H](C)C[C@H]1CC[C@](O)([C@](C)(O)C(=O)N[C@@H]2C(=O)N3NCCC[C@@H]3C(=O)N(O)[C@@H](C)C(=O)NCC(=O)N3NCCC[C@H]3C(=O)N(O)[C@H](C)C(=O)O[C@H]2C(C)C)O[C@@H]1C,1.52 µM
16,COc1ccc(-c2cc3nc([C@H](C)NC(=O)Cc4cccc(F)c4)nn3cn2)cc1,13 µM
17,CC(C)NS(=O)(=O)c1ccc(OCC(=O)N2CCC(Cc3ccccc3)CC2)cc1,5.5 µM
18,Cc1ccc(-c2nc(NC(=O)Nc3ccc(Cl)cc3)sc2C)cc1,32.9 µM
19,CC(C)(C)C(=O)[C@@H]1[C@@H](C(=O)c2ccc3c(c2)OCO3)[C@@]2(C(=O)Nc3ccccc32)[C@H]2c3ccccc3C=CN12,44.5 µM
20,CSc1ccc(CNC(=O)CC2CCN(S(=O)(=O)c3ccc(C)cc3)CC2)cc1,16.3 µM
21,CCN(C(=O)c1cc2c(s1)-c1ccccc1OC2)c1ccccc1F,19.6 µM
22,Cc1ccc(S(=O)(=O)N2CCC3(CC2)NC(=O)c2ccccc2N3)c(C)c1,31.3 µM
23,Cc1cccc(NC(=O)CSc2nnc(-c3n[nH]c4c3CCC4)n2N)c1C,17.6 µM
24,CN(C)c1ccc(C2CC(c3c(O)n(C)c(=O)[nH]c3=O)=Nc3ccccc3S2)cc1 (centres undefined),2.12 µM

row,Compound,IC50
1,CC1CCCN1C(=O)c1ccn(-c2ccc3ccc(-c4cccnc4)cn23)n1 (centres undefined),> 50 µM (inactive)
2,Cc1ccc(-c2c(C(=O)Nc3ccc(S(N)(=O)=O)cc3)oc(=O)c3ccccc23)cc1,30.5 µM
3,O=C(CCc1nnc2n(Cc3ccccc3)c(=O)c3ccccc3n12)N1CCN(c2ccccn2)CC1,2.98 µM
4,CCn1cnc2c1c(=O)n(CC(=O)NCc1ccccc1Cl)c(=O)n2Cc1ccccc1,> 50 µM (inactive)
5,CC(C)(C)c1cc(CCC(=O)Nc2c3c(nc4c2CCC4)CCCC3)cc(C(C)(C)C)c1O,> 50 µM (inactive)
6,O=C(c1ccco1)N1CCN=C1SCc1ccccc1F,9.78 µM
7,CC[C@@]1(O)C[C@H](OC2CC(N(C)C)C(OC3CC(O)C(OC4CCC(=O)C(C)O4)C(C)O3)C(C)O2)c2c(cc3c(c2O)C(=O)c2c(O)ccc(O)c2C3=O)[C@H]1C(=O)OC (some centres undefined),4.26 µM
8,O=C(Cn1c(=O)n(Cc2ccccc2)c(=O)c2ncccc21)NCc1ccccc1Cl,25.9 µM
9,COc1ccc(CN=C2NS(=O)(=O)C(c3ccc(F)cc3)=C2C)cc1OC,23 µM
10,O=C(Nc1ccc2c(c1)OCCO2)C1CCC(Cn2cnc3ccccc3c2=O)CC1 (centres undefined),0.594 µM
11,Cc1cccc(COc2ccc(C3SCC(=O)Nc4n[nH]c(C)c43)cc2)c1 (centres undefined),5.31 µM
12,O=C(Nc1cccc2ccccc12)C1CCCN(S(=O)(=O)Cc2ccccc2)C1 (centres undefined),18.8 µM
13,Cc1ccc(C(C)C)cc1OCCOCCN1CCNCC1,19.8 µM
14,CCC1=C(c2ccc(C)cc2)S(=O)(=O)NC1=NCC(=O)NCc1ccccc1F,33.2 µM
15,CC(C)(C)N=C1Nc2ncccc2NC12CCCN(C(=O)c1ccccc1)C2 (centres undefined),> 50 µM (inactive)
16,COCCNC(=O)c1ccn(-c2ccc3ccc(-c4cnn(C)c4)cn23)n1,> 50 µM (inactive)
17,Cn1cc(CCNC(=O)c2cc3ccccc3[nH]2)c2cccnc21,8.29 µM
18,COc1ccc(NC(=O)CSc2oc(-c3ccc(C)cc3)nc2S(=O)(=O)c2ccc(Br)cc2)c(OC)c1,> 50 µM (inactive)
19,COc1cccc(CN2CCc3nc4nc(C)ccc4cc3C2)c1,> 50 µM (inactive)
20,Cc1cc(NC(=O)COc2ccc3oc4ccccc4c3c2)no1,26.5 µM
21,CCCCC/C=C/C=C/C(=O)OC1C(O)CC(c2ccc3c(c2O)C(=O)c2c(O)cc4cc(C)cc(O)c4c2C3=O)OC1C (centres undefined),14.6 µM
22,COc1cccc(-n2c(=O)[nH]c3c(C(N)=O)nc(-c4ccc(OCc5ccccc5)cc4)nc32)c1,> 50 µM (inactive)
23,CCOc1ccc(C(=O)Cn2c(=O)n(CC3CCCO3)c(=O)c3cc(OC)c(OC)cc32)cc1Cl (centres undefined),23 µM
24,Cc1ccc(NCc2cc3c(C(C)(C)C)nn(-c4ccc(Cl)cc4)c3[nH]c2=O)cc1,23.6 µM

row,Compound,IC50
1,O=S1(=O)CCN(CC2CCCO2)c2c(Oc3ccccc3)nc(F)c(Cl)c21 (centres undefined),> 50 µM (inactive)
2,c1ccc(CN2CCN(c3nc4ccccc4n4nnnc34)CC2)cc1,> 50 µM (inactive)
3,O=C(CN1C(=O)c2ccccc2Sc2ccc(C(=O)N3CCCC3)cc21)Nc1ccccc1Cl,29.6 µM
4,CC(=O)c1ccc(N2C(=O)N(Cc3cccc([N+](=O)[O-])c3)c3ccccc3S2(=O)=O)cc1,> 50 µM (inactive)
5,CC1(C)Cc2nc3sc4c(=O)n(CC(=O)NCc5ccccc5)cnc4c3cc2CO1,32.9 µM
6,Cc1ccc(CNC(=O)Cn2c(=O)n(-c3ccccc3)c3ncccc32)cc1,> 50 µM (inactive)
7,N#C/C(=C\c1ccc(OCc2cccc(C(=O)O)c2)cc1)c1ccc(F)cc1,17.8 µM
8,CCOc1ccccc1NC(=O)Cn1ccn2nc(-c3ccc(OC)cc3)cc2c1=O,16.5 µM
9,CC1=CN2C(=N)/C(=C/c3cn(Cc4ccc(Cl)cc4)c4ccccc34)C(=O)N=C2S1,> 50 µM (inactive)
10,Cc1ccc(Cn2cc(-c3noc(-c4ccc[nH]4)n3)nn2)cc1,16.2 µM
11,COc1ccc2nc(SCC(=O)Nc3ccc(NC(C)=O)cc3)c(C)cc2c1,9.45 µM
12,CCOc1cc(C2C3=C(CC(C)(C)CC3=O)Nc3onc(C)c32)ccc1O (centres undefined),37.5 µM
13,CCC(=O)Nc1ccccc1-c1nc2ccccc2n(CC(=O)Nc2cc(OC)ccc2OC)c1=O,14 µM
14,O=C(CC1Oc2ccccc2NC1=O)Nc1ccccc1Br (centres undefined),38 µM
15,O=C(CCCn1c(=O)c2ccccc2n(CC(=O)NCc2ccccc2Cl)c1=O)NCc1ccc2c(c1)OCO2,1.94 µM
16,COc1ccc(-c2cc(N3CCC(NC(=O)c4ccccc4)C3)n[nH]2)cc1 (centres undefined),16 µM
17,CCC(=O)Nc1cccnc1-c1ccc(C(=O)Nc2cccc(OC)c2)cc1,14.5 µM
18,COc1ccc(NC(=O)Cn2cc(C(=O)c3ccc(F)cc3)c(=O)c3cc(C)ccc32)cc1,19.7 µM
19,COc1ccc(Cl)c(NC(=O)C2CC(=O)Nc3cc(-c4ccccc4)nn32)c1 (centres undefined),17.3 µM
20,O=C(Nc1ccncc1)c1ncoc1-c1cccc(Cl)c1,32.3 µM
21,COc1cc(NC(=O)c2cc(CN3CCOCC3)on2)cc(OC)c1,20.3 µM
22,CC(CCc1ccccc1)NC(=O)Cn1c(=O)c2cccn2c2ccccc21 (centres undefined),14.3 µM
